Common to all, as to assay type: cell-based, Pseudomonas aeruginosa
For one experiment, the system named is P. aeruginosa ATCC 27853. In words: checkerboard titration, gemifloxacin and meropenem (MIC, FIC). The note with it: for MIC: Pseudomonas aeruginosa. Here is the method:
Evaluation for synergistic activity was carried out by calculation of fractional inhibitory concentrations (FICs) according to the method of Eliopoulos et al (1996, Antimicrobial Combinations, Antibiotics in Laboratory Medicine, Victor Lorian, 4th Edition, pp 337-338, Baltimore, Md., Williams and Wilkins).
P. aeruginosa ATCC 27853 was obtained from the SmithKline Beecham Anti-Infectives Research Culture Collection and stored at −80° C. in 10% glycerol. Before testing, the isolate was passaged onto agar plates (trypticase soy agar containing 5% sheeps blood) from the frozen stock for two consecutive days. Cation adjusted Mueller Hinton broth (BBL, Cockeyville, Md.) was used for the isolate.
Checkerboard microtitre broth dilution plates were prepared using the Hamilton MicroLab AT Plus system (Reno, Nev.). Two-fold serial dilutions (50 μl) of meropenem were made in columns 1 through 11 of a microtitre plate. Two-fold serial dilutions of gemifloxicin were prepared manually and the MicroLab AT Plus was used to dispense 25 μl of gemifloxacin at each concentration into rows A through G of the microtitre plate. The concentration range tested varied for each drug/organism combination to encompass the MIC endpoints of the individual components. Column 12 contained two fold serial dilutions of gemifloxacin only, and row H contained two fold serial dilutions of meropenem only. The last well (H) in column 12 was used as a positive growth control well, containing only medium and test isolate.
The bacteria were diluted to a 0.5 McFarland standard and then further diluted 1/50. Each well was inoculated with 25 μl of the isolate to give a final inoculum density of approximately 5×10^5 cfu/ml. The MicroLab AT Plus 2 was used to add the inoculum to the microtitre plates. After inoculation, the plates were covered with a 96 well microtitre plate lid and incubated at 35° C. in ambient air for 20-24 hours. A 10 μl aliquot of the inoculum was plated on trypticase soy agar containing 5% sheep blood to determine the purity of the final test inoculum.
Following incubation, a microtitre mirror reader (Cooke Instruments Ltd., England) was used to assist in determining the microdilution MIC endpoints. The MIC was determined as the lowest concentration of compound that inhibited visible growth of the organism.
The Fractional Inhibitory Concentrations (FICs) were calculated using the following formula: (A)/(MIC A)+(B)/(MIC B)=FIC A+FIC B=FIC Index wherein: • A is the MIC of drug A in the presence of drug B • B is the MIC of drug B in the presence of drug A • MIC A is the MIC of the organism to drug A alone • MIC B is the MIC of the organism to drug B alone • FIC A is the fractional inhibitory concentration of drug A • FIC B is the fractional inhibitory concentration of drug B

The subject of a further experiment is P. aeruginosa 6140. As to the kind of experiment: checkerboard titration, gemifloxacin and imipenem (MIC, FIC). The note with it: for MIC: Pseudomonas aeruginosa, alone. On the procedure: (§1) The combined effect of gemifloxacin and imipenem was investigated in P. aeruginosa by using a checkerboard titration method. The test organisms used in this study were all clinical isolates collected in Korea. The isolates were maintained frozen at −70° C. prior to testing.
(§2) Gemifloxacin was tested at 12 concentrations (0.016-32 μg/ml) and imipenem was tested at 11 concentrations (0.016-16 μg/ml). Gemifloxacin was dispensed alone in the first row and combined with imipenem in the remaining rows. Imipenem solution was also dispensed alone in the first row in the first column. Test strains were grown for 18 h in Mueller-Hinton Broth, and then these overnight cultures were diluted with the same fresh medium to the density of approximately 10^7 CFU/mL. The bacterial concentrations were determined by measuring optical density or turbidity of the suspension and were verified by standard colony counts on antibiotic-free agar plates. A diluted bacterial solution was applied to plates containing serially diluted antimicrobial agents to yield 5×10^5 CFU/mL. Plates were incubated at 35° C. for 18 hours.
(§3) Minimal inhibitory concentrations (MICs) for each separate drug were determined. For wells along the growth-no growth interface, synergy was determined by calculating the Fractional Inhibitory Concentration (FIC) index. The Fractional Inhibitory Concentration (FIC) indices were calculated using the following formula: FIC index=FICA+FICB=[A]/MICA+[B]/MICB Wherein: • FICA(or B), is the FIC of drug A (or B) • MICA (or B) is the MIC of the organism to drug A (or B) • A (or B) is concentration of drug A (or B) that is the lowest inhibitory concentration
(§4) The FIC indices were interpreted using the following criteria: • ≦0.5=Synergy; • >0.5-1.0=Additive; • >1.0-4.0=Indifference; • >4.0=Antagonism

In another experiment the test system is P. aeruginosa 6168. The description is as above. Conditions: for MIC: Pseudomonas aeruginosa, alone. Here is the method:
as §1, §2, §3, §4

A further experiment concerns P. aeruginosa PA018R. The description is as above. Conditions: for MIC: Pseudomonas aeruginosa, alone. Here is the method: as §1, §2, §3, §4
Where [1] appears, read: imipenem in combination with gemifloxacin.
Where [2] appears, read: gemifloxacin in combination with imipenem.

Like-named read-outs stand apart in the source and are kept apart here.

Regarding `C[C@@H](O)[C@H]1C(=O)N2C(C(=O)O)=C(S[C@@H]3CN[C@H](C(=O)N(C)C)C3)[C@H](C)[C@H]12` [meropenem], the MIC with P. aeruginosa ATCC 27853 (ATCC27853, in the presence of gemifloxacin 0.125 μg/ml, read-out: meropenem MIC) stood at 0.125 µg/mL. For the same molecule, the meropenem MIC in the experiment with P. aeruginosa ATCC 27853 (meropenem alone) worked out at 0.5 µg/mL.
Regarding `C[C@@H](O)[C@H]1C(=O)N2C(C(=O)O)=C(SCCN=CN)C[C@H]12` [imipenem], the FICB in the experiment on P. aeruginosa 6140 (FIC of imipenem) turned out to be 0.25; in the experiment on P. aeruginosa 6168 (FIC of imipenem), 0.25; with P. aeruginosa PA018R (FIC of imipenem) it was 0.06. Besides, the MIC is 4 µg/mL in the experiment with P. aeruginosa 6140 (read-out: imipenem MIC), 1 µg/mL with P. aeruginosa 6168 (read-out: imipenem MIC) and 16 µg/mL in the experiment with P. aeruginosa PA018R (read-out: imipenem MIC). Moreover, the “Cimipenem MIC” value was determined as 1 µg/mL in the experiment with P. aeruginosa 6140 (setting [1]), 0.25 µg/mL in the experiment on P. aeruginosa 6168 (setting [1]) and 1 µg/mL with P. aeruginosa PA018R (setting [1]).
In the case of `CO/N=C1\CN(c2nc3c(cc2F)c(=O)c(C(=O)O)cn3C2CC2)CC1CN` (racemic) [gemifloxacin, (R,S)-7-(3-aminomethyl-4-methoxyiminopyrrolidin-1-yl)-1-cyclopropyl-6-fluoro-4-oxo-1,4-dihydro-1,8-naphthyridine-3-carboxylic acid], the FICA turned out to be 0.25 in the experiment with P. aeruginosa 6140 (FIC of gemifloxacin), 0.13 with P. aeruginosa 6168 (FIC of gemifloxacin) and 0.25 in the experiment with P. aeruginosa PA018R (FIC of gemifloxacin). In addition, the MIC in the experiment with P. aeruginosa 6140 (read-out: gemifloxacin MIC) came to 8 µg/mL; in the experiment with P. aeruginosa 6168 (read-out: gemifloxacin MIC) it was 0.5 µg/mL; with P. aeruginosa PA018R (read-out: gemifloxacin MIC) it was 4 µg/mL; in the experiment with P. aeruginosa ATCC 27853 (ATCC27853, in the presence of meropenem 0.125 μg/ml, read-out: gemifloxacin MIC), 0.125 µg/mL. In addition, the “Cgemifloxacin MIC” value with P. aeruginosa 6140 (setting [2]) stood at 2 µg/mL; in the experiment with P. aeruginosa 6168 (setting [2]), 0.0625 µg/mL; with P. aeruginosa PA018R (setting [2]), 1 µg/mL. Further, the gemifloxacin MIC with P. aeruginosa ATCC 27853 (gemifloxacin alone) came to 0.5 µg/mL.

These data come from patent US20050020567A1, “Method of treating bacterial infections using gemifloxacin or a salt thereof and a carbapenem antibacterial agent” (priority 2002, published 2005).
